# According to EP4523699A1, “ANTI-INFLAMMATORY DERMATOLOGICAL COMPOSITION COMPRISING GLYCEROPHOSPHOINOSITOL, A LACTOFERRIN HYDROLYSATE AND A CANNABINOID, IN PARTICULAR FOR TREATING SEBORRHEIC DERMATITIS” (FB Dermo srl, priority 2023, dated 2025):
# Read-outs that look alike come from different tables or passages of the source.
# Legend:
# Type in all cases: cell-based, human
# [1] = MTT assay, cytotoxicity test on HaCaT cells; conditions: human, hacat cells, percentage of untreated cells (NT), read-out: Cell viability
# Protocol: (§1) Cells vitality is measured as absorbance after MTT treatment. Values are expressed as absorbance percentage over untreated (NT) cells; 1 mg/ml SDS is used as positive control; the boxes show the three highest non-toxic concentrations of each compound.
# (§2) Cell lines of immortalized human keratinocyes (HaCaT cells) were grown at 37 °C, 5% CO2 in DMEM culture medium, added with 1% non-essential aminoacids and 10% FBS. The cells were plated in 96-wells multi-well plates at 10^4 cells/well, in 10% FBS -DMEM. The day after, the culture medium was removed and substituted with 100 µL of complete medium with 1% FBS; then, an MTT assay was carried out after treating cells with the single ingredients prepared in Example 1.
# (§3) As positive control of toxicity, sodium dodecyl sulfate (SDS) was used, at the concentration of 1 mg/ml.
# (§4) The cells were incubated for 24 hours at 37°C and 5% CO2.
# (§5) At the end of each incubation, the reagent 3-(4,5-dimethylthiazol-2-yl)-2,5-diphenyltetrazolium bromide (MTT) was added to each well, at the final concentration of 0.45 mg/mL. The plates were then incubated for an additional 2 hours, at 37 °C and 5% CO2.
# (§6) At the end of the incubation, the crystals of reduced MTT were solubilized by removing the medium and adding 100 µL of dimethyl sulfoxide (DMSO) to each well.
# (§7) Finally, the absorbance at 595 nm of each sample was measured, using an Infinite M NANO+ (Tecan) plate reader.
# (§8) The cell viability following treatment with the different substances was analyzed. Cell viability is expressed as percentage of absorbance at 595 nm of untreated cells (NT).
# [2] = system: IL-6; assay: ELISA of IL-6 production in TNFα-inflamed HaCaT cells; conditions: TNFα 20 ng/ml overnight, then 24 hours of treatment
# Protocol: Cell lines of immortalized human keratinocytes (HaCaT cells) were grown at 37 °C, 5% CO2 in DMEM culture medium, added with 1% non-essential aminoacids and 10% FBS. The cells were plated in 48-wells multi-well plates at 5*10^4 cells/ml, in 10% FBS DMEM. The day after, the culture medium was removed and substituted with 500 µL of complete medium without FBS and at the same time an inflammatory process was induced by treatment with TNFα 20 ng/ml, maintained over/night. This stimulus induces an increase in production of these cytokines compared to controls not receiving TNFα.
# An experimental group of untreated cells was included, as a negative control of inflammation.
# The following day, the inflamed cells were treated with each ingredient prepared in Example 1, at the highest non-toxic concentrations identified in Example 2. • Cannabidiol (CBD): 0.031 (w/v) • GPI lysine (GPI): 0.31 (w/v) • lactoferrin hydrolysate (LAC): 1 (w/v). […]
# The dosage of the pro-inflammatory cytokine IL-6 (interleukin 6) was performed on 100 µL of each of the stored aliquots, following the kit protocol provided by the manufacturer. […] The anti-inflammatory effect of the compounds and compositions testes is expressed as a percentage of interleukin's production, with respect to inflamed cells (TNFα-treated) not subjected to anti-inflammatory treatment.
# [3] = system: HaCaT cells; assay: MTT assay, cytotoxicity test on HaCaT cells; conditions: 24 hours
# Protocol: as §1, §2, §3, §4, §5, §6, §7, §8
Structure (SMILES),viability at 24 h ([1]; concentration 0.063 % w/v) [%],viability at 24 h ([1]; concentrations from 0.031 to 0.004 % w/v) [%],"activity at 0.03 % ([2]; Homo sapiens, 0.03% (w/v)) [%]","Cell viability ([3]; percentage of absorbance at 595 nm of untreated cells (NT), concentration 0.0313 % v/v)","Cell viability ([3]; percentage of untreated cells (NT), concentrations of 0.0156 - 0.001 % v/v)",IL-6 production (% vs TNFα) Mean ([2]; 0.031% (v/v)) [% vs TNFα]
"C=C(C)[C@@H]1CCC(C)=C[C@H]1c1c(O)cc(CCCCC)cc1O [CBD, cannabidiol]",~50,~80,99,,,
"O=P(O)(OC[C@H](O)CO)OC1[C@H](O)[C@H](O)C(O)[C@H](O)[C@H]1O (stereo partly drawn) [GPI Lysine, glycerophosphoinositol]",,,,Above 50%,around 80%,96
